Data on 7 molecules can be found in patent publication US12173309B2, “Compounds for increasing genome editing efficiency” (Max-Planck-Gesellschaft zur Förderung der Wissenschaften …, priority 2017, dated 2024).

Data set [1] deals with 409-B2 iCRISPR-Cas9D10A iPSCs. Kind of data set: Precise genome editing (PGE) efficiency with iCRISPR Cas9D10A double nicking and ssODN donors, Illumina sequencing/CRISPResso. Type of data set: cell-based, human. As to conditions: for effect on PGE frequency over CALD1, KATNA1 and SLITRK1 compared to controls: 1 μM NSC 19630, 20 μM AICAR, 1 μM RS-1, 1 μM Resveratrol, 1 μM SCR7, 5 μM L755507, 5 μM STL127685, 20 μM B02; for effect on PGE of further addition to the mix of NU7026, TSA and MLN4924: all loci, 5 μM NSC 15520, then 1 μM NSC 19630, 20 μM AICAR, 1 μM RS-1 (FIG. 5A); for effect on PGE efficiency with ssODN (discussion summary): nuclease not stated; for PGE increase (mean change vs control): 20 μM NU7026, 0.01 μM TSA, 0.5 μM MLN4924, 5 μM NSC 15520, CRISPY mix = all four. The procedure:
(§1) FIG. 1: Genome editing and analysis flowchart. iCRISPR 409-B2 iPSCs are treated with 2 μg/ml doxycycline at least for 2 days to induce Cas9 or Cas9D10A expression. Reverse transfection with RNAiMAX, gRNA (7.5 nM each), ssODN (10 nM) and the small molecules to be evaluated is carried out in a 96 well plate for 1 day. The amount of cells used gives ˜80% confluency. Cells are then expanded for 3 days with regular media change. After harvest follows DNA extraction, PCR amplification of targeted loci, Illumina sequencing and CRISPResso (Pinello et al. 2016) sequence analysis for amount of indels and precise genome editing.
(§2) Cells were incubated with media containing 2 μg/ml doxycycline (Clontech, 631311) 2 days prior to lipofection. Lipofection (reverse transfection) was done using the alt-CRISPR manufacturer's protocol (IDT) with a final concentration of 7.5 nM of each gRNA and 10 nM of the respective ssODN. In brief, 0.75 μl RNAiMAX (Invitrogen, 13778075) and the respective oligonucleotides were separately diluted in 25 μl OPTI-MEM (Gibco, 1985-062) each and incubated at room temperature for 5 min. Both dilutions were mixed to yield 50 μl of OPTI-MEM including RNAiMAX, gRNAs and ssODNs. The lipofection mix was incubated for 20-30 min at room temperature. During incubation cells were dissociated using EDTA for 5 min and counted using the Countess Automated Cell Counter (Invitrogen). The lipofection mix, 100 μl containing 25.000 dissociated cells in mTeSR1 supplemented with Y-27632, 2 μg/ml doxycycline and the respective small molecule(s) to be tested were throughoutly mixed and put in one well of a 96 well covered with Matrigel Matrix (Corning, 35248). Media was exchanged to regular mTeSR1 media after 24 hours.
(§3) Three days after lipofection cells were dissociated using Accutase (SIGMA, A6964), pelleted, and resuspended in 15 μl QuickExtract (Epicentre, QE0905T). Incubation at 65° C. for 10 min, 68° C. for 5 min and finally 98° C. for 5 min was performed to yield ssDNA as a PCR template. Primers for each targeted loci of CALD1, KATNA1 and SLITRK1 containing adapters for Illumina sequencing were ordered from IDT (Coralville, USA). PCR was done in a T100 Thermal Cycler (Bio-Rad) using the KAPA2G Robust PCR Kit (Peqlab, 07-KK5532-03) with supplied buffer B and 3 μl of cell extract in a total volume of 25 μl. The thermal cycling profile of the PCR was: 95° C. 3 min; 34×(95° 15 sec, 65° C. 15 sec, 72° C. 15 sec); 72° C. 60 sec. P5 and P7 Illumina adapters with sample specific indices were added in a second PCR reaction (Kircher et al. 2012) using Phusion HF MasterMix (Thermo Scientific, F-531L) and 0.3 μl of the first PCR product. The thermal cycling profile of the PCR was: 98° C. 30 sec; 25× (98° 10 sec, 58° C. 10 sec, 72° C. 20 sec); 72° C. 5 min. Amplifications were verified by size separating agarose gel electrophoresis using EX gels (Invitrogen, G4010-11). The indexed amplicons were purified using Solid Phase Reversible Immobilization (SPRI) beads (Meyer, Kircher 2010). Double-indexed libraries were sequenced on a MiSeq (Illumina) giving paired-end sequences of 2×150 bp. After base calling using Bustard (Illumina) adapters were trimmed using leeHom (Renaud et al. 2014).
(§4) CRISPresso (Pinello et al. 2016) was used to analyse sequencing data from CRISPR genome editing experiments for percentage of wildtype, targeted nucleotide substitutions (TNS), indels and mix of TNS and indels. Parameters used for analysis were ‘-w 20’, ‘--min_identity_score 70’ and ‘--ignore_substitutions’ (analysis was restricted to amplicons with a minimum of 70% similarity to the wildtype sequence and to a window of 20 bp from each gRNA; substitutions were ignored, as sequencing errors would be falsely characterized as NHEJ-events). Sequencing data from colonies after single cell seeding (FIGS. 3B and C) was further analyzed by evaluating the actual read sequences using SAMtools. Clonal colonies were differentiated from mixed colonies using sequence read proportions. […]

Data set [2] relates to 409-B2 iCRISPR-Cas9 iPSCs. Put plainly: PGE efficiency with iCRISPR Cas9 and ssODN donors. Type of data set: cell-based, human. As to conditions: 0.01 μM TSA, 0.5 μM MLN4924, 1 μM NSC 19630, 20 μM AICAR, 1 μM RS-1, 1 μM Resveratrol, 1 μM SCR7, 5 μM L755507, 5 μM STL127685, 20 μM B02. The protocol:
as §1, §2, §3, §4

The subject of the next data set is HEK293A cells. As to conditions: literature; RS-1 with dsODN donors, control 3.5%; cited from earlier work.
A further data set concerns mouse ESCs. The conditions noted are these: literature; dsODN donors, control 17.7%; cited from earlier work.
The next data set relates to U2OS cells. The conditions noted are these: literature; dsODN donors, control 1.9%; cited from earlier work.
The subject of another data set is rabbit embryos. As to conditions: literature; RS-1 with dsODN donors, control 4.4%; cited from earlier work.
Data set [3] deals with porcine fetal fibroblasts. The conditions noted are these: literature; ssODN donors; cited from earlier work.
A further data set has as its target human LIG4 (Homo sapiens, UniProt P49917). The conditions noted are these: literature (Greco et al. 2016); cited from earlier work.
The next data set deals with human stem cells. The conditions noted are these: literature; cited from earlier work.
Data set [4] concerns 409-B2 iCRISPR Cas9D10A iPSCs. Put plainly: Cell death by phase contrast light microscopy in first concentration screen. Type of data set: cell-based, human. From the text:
FIGS. 3A-3D: First screen for solvent effect and influence of different small molecule concentrations on genome edit-ing of CALD1, KATNA1 and SLITRK1 with iCRISPR Cas9D10A. Shown are precise genome editing (PGE) and indels with green circles (triangles) or blue diamonds, respectively. Each symbol represents a technical replicate. The respective means are shown as a black line. Each skull indicates cell death of up to 20% determined by phase contrast light microscopy.

Entries after “also recorded” stand apart in the source; their conditions may differ.

human LIG4, sequence (P49917 whole entry): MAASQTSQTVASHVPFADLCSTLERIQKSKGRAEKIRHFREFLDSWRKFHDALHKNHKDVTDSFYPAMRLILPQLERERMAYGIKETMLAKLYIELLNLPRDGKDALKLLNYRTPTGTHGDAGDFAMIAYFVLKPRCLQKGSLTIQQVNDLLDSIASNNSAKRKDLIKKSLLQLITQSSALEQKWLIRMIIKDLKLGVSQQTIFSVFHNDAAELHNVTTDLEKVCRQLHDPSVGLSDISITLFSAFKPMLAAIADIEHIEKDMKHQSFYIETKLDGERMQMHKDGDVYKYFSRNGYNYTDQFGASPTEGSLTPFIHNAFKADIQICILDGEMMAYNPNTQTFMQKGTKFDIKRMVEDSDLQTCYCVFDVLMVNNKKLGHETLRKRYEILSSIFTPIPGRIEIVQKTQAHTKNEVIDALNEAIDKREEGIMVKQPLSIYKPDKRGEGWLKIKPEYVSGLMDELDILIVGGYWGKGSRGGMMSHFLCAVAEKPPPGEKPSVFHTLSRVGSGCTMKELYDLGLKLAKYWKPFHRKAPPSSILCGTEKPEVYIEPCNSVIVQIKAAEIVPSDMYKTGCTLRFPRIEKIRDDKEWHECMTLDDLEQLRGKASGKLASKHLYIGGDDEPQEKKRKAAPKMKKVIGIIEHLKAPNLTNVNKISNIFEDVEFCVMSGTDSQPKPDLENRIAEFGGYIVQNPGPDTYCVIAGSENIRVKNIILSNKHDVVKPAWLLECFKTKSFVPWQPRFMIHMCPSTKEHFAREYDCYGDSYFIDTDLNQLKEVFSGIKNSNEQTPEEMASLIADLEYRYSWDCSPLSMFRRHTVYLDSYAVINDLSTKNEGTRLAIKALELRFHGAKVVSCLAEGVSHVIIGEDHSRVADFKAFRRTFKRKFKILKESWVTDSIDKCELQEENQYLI
human LIG4, sequence (Q13426 whole entry partner): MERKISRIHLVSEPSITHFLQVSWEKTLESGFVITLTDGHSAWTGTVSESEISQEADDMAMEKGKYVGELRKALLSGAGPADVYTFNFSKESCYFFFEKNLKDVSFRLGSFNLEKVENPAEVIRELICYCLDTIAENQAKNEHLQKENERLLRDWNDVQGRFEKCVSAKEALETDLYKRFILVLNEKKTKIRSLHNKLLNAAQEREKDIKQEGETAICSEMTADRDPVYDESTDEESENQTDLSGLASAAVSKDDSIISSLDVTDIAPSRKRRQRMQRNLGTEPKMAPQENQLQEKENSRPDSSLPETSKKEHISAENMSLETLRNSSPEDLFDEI

Consider `NC(=O)c1ncn([C@@H]2O[C@H](CO)[C@@H](O)[C@H]2O)c1N` [AICAR], for which, in data set [1] (Cas9D10A), the “effect on PGE frequency over CALD1, KATNA1 and SLITRK1 compared to controls” value is on record as “no clear effect”; the “effect on PGE of further addition to the mix of NU7026, TSA and MLN4924” value was “no measurable effect”. In data set [1], the “effect on PGE efficiency with ssODN (discussion summary)” value (“effect on PGE efficiency with ssODN” below) was “no effect”. Further, the “effect on PGE frequency over CALD1, KATNA1 and SLITRK1 compared to controls” value in data set [2] is listed as “no effect or a diminishing effect”.

Take `O=c1c2ccccc2nc(/C=C/c2cccnc2)n1Cc1ccccc1` [B02]: the “effect on PGE frequency over CALD1, KATNA1 and SLITRK1 compared to controls” value in data set [1] (Cas9D10A) and in [2] was “halved” in each case. In addition, the “effect on PGE efficiency with ssODN” value in [1] is recorded as “halved”.

Turning to `CCCCCCNC(=O)Nc1ccc(S(=O)(=O)Nc2ccc(CCNC[C@H](O)COc3ccc(O)cc3)cc2)cc1` [L755507], the PGE entry in the data set on HEK293A cells was “did not find significant stimulation”; in the data set on mouse ESCs, 33.3%. For the same molecule, the “effect on PGE frequency over CALD1, KATNA1 and SLITRK1 compared to controls” value in data set [1] (Cas9D10A) is “no clear effect”; in data set [2], “no effect or a diminishing effect; also recorded: no clear effect”.

`O=C(Nc1ccc(Br)cc1)c1ccc(Br)c(S(=O)(=O)NCc2ccccc2)c1` [RS-1]: the PGE in the data set with HEK293A cells is recorded as 21%; with U2OS cells it was 2.4%; with rabbit embryos it was 26.1%. In addition, the results for the “effect on PGE frequency over CALD1, KATNA1 and SLITRK1 compared to controls” value in [1] (Cas9D10A) and in data set [2] were “no clear effect” and “no effect or a diminishing effect; also recorded: no clear effect”, respectively. Besides, the “effect on PGE of further addition to the mix of NU7026, TSA and MLN4924” value in [1] (Cas9D10A) is listed as “no measurable effect”. For the same molecule, the “effect on PGE efficiency with ssODN” value in data set [1] is listed as “no beneficial effect”. In addition, the “effect on PGE efficiency” value in data set [3] is reported as “No effect”.

On to `Oc1ccc(C=Cc2cc(O)cc(O)c2)cc1` [Resveratrol], for which the “effect on PGE frequency over CALD1, KATNA1 and SLITRK1 compared to controls” value was “no clear effect” in data set [1] (Cas9D10A) and “no effect or a diminishing effect” in data set [2].

On to `O=c1[nH]c(=S)[nH]c(N=Cc2ccccc2)c1N=Cc1ccccc1` [SCR7], for which the PGE entry in the data set with HEK293A cells is listed as “marginal but significant increase”; in the data set on rabbit embryos it was “no significant effect”. Besides, the “effect on PGE frequency over CALD1, KATNA1 and SLITRK1 compared to controls” value in data set [1] (Cas9D10A) was “no clear effect”; in data set [2] it was “no effect or a diminishing effect; also recorded: no clear effect”. Besides, the “inhibition of human LIG4” value on human LIG4 is reported as “neither selective nor potent”. For the same molecule, the “effect on PGE” value in the data set on human stem cells is listed as “no significant effect”.

In the case of `CC(/C=C/C(=O)NO)=C\[C@@H](C)C(=O)c1ccc(N(C)C)cc1` [TSA, Trichostatin A], the “PGE increase (mean change vs control)” value in [1] (CALD1, Cas9D10A) came out at 1.5 fold; in data set [1] (KATNA1, Cas9D10A), 2.2 fold; in data set [1] (SLITRK1, Cas9D10A) it was 1.8 fold. Moreover, the “higher PGE frequency than without the molecules” value in [1] (Cas9D10A, pooled across CALD1, KATNA1, SLITRK1 (FIG. 5A), p<0.001) is given as 1.8 fold. In addition, the “effect on PGE frequency over CALD1, KATNA1 and SLITRK1 compared to controls” value in [2] is given as “no enhancing effect”. In addition, the cell death entry in [4] (0.1 μM) and in [4] (1 μM) was “All cells died” in each case.
